Like-named read-outs stand apart in the source and are kept apart here.
Assays:
Male CF1 mice = assay: Mouse antiphenylquinone writhing (PQW) test; format: in vivo; design: Mouse PQW ED50 (mg/kg): unit not given here; conditions: for ED50: Mus musculus, 0.5 h, phenylquinone 1.25 mg/kg i.p., observation beginning 30 min after injection of test compound; for ED50 / Mouse PQW remark: Table 3; for Mouse PQW remark: remark beside S.C and P.O values; for Mouse PQW ED50 (mg/kg): Table 4, 3° carbinols within the scope of U.S. 4,485,109, head prints neither endpoint nor unit
Procedure: The anti-pheylquinone writhing (PQW) test modified from the methods of Siegmund et al. (Proc. Soc. Exp. Biol. Med. 95: 729-731, 1957) and Blumberg et al. (Proc. Exp. Biol. Med. 118: 763-767, 1965) was used to assess analgesia in mice. Male CF1 mice (Charles River Breeding Laboratories, Wilmington, MA), fasted for 16-22 h and weighing 18-23 g, were injected with randomized and coded doses of test compounds, then challenged with 1.25 mg/kg i.p. phenyl-p-benzoquinone (phenylquinone) 5 min prior to the specified observation time. The phenylquinone solution (0.1 mg/ml in 5% aqueous ethanol) was prepared daily and stored in foil-wrapped amber bottles to limit degradation. Mice were observed 10 min for the presence or absence of the characteristic abdominal constriction and stretching response beginning 30 min after injection of the test compound. Analgetic activity was calculated as the percentage of mice failing to respond to the phenylquinone challenge dose. […] Median effective doses (ED50's) and 95% confidence limits were determined numerically by the methods of Thompson (Bacteriological Rev. 11: 115-145, 1947), and Litchfield and Wilcoxon (J. Pharmacol. Exp. Ther. 96: 99.113, 1949).
The data shown in Table show the PQW ED₅₀ values for the compounds of the aforesaid examples.
Table 4 illustrates that the 3° carbinols within the scope of U.S. 4,485,109 have utility as analgesic agents.

Male CF mice = assay: Antagonism of tetrabenazine-induced depression (exploratory loss and ptosis) in mice; format: in vivo; conditions: Mus musculus, po, 1 h, orally, one hour post-drug, tetrabenazine methane sulfonate 52 mg/kg i.p., read-out: Oral ED₅₀ (mg/kg) for Prevention of Ptosis
Text: The prevention of tetrabenazine-induced sedation and depression in mice is a standard procedure used to detect and compare antidepressant compounds. The activity of antidepressant compounds in this procedure correlates well with human efficacy. (Barnett, et al., Int. J. Neuropharmac. 8: 73-79, 1969, and Vernier, et al., "The Pharmacodynamics of Amitriptyline" in Psychsomatic Medicine (Nodine & Moyer, editors) pp. 683-690, 1962).
Male CF mice (Charles River Breeding Laboratories, Wilmingon, MA), fasted for 16-22 hours and weighing 18-25 g, were injected with randomized and coded does of test compounds, then challenged with 52 mg/kg i.p. tetrabenazine methane sulfonate 30 minutes prior to the specified observation time. The tetrabenazine methane sulfonate solution (5.2 mg/ml in distilled water) was prepared daily and stored in foil-wrapped amber bottles to limit degradation. […] Exploratory loss was defined as failing to move to the perimeter of a 12.7 cm (5 inch) (12.7 cm) circle within 15 seconds of being placed at the center of the circle. Ptosis was defined as both eyelids closed 50% or more compared to normal. Antidepressant activity was calculated as the percentage of mice failing to respond to the tetrabenazine challenge dose. […] Median effective does (ED₅₀'s) were estimated using the Moving Average method of Thompson (Bacteriological Rev. 11: 115-145, 1947).
The data in Table 5 show ED₅₀ values for the compounds of the aforesaid examples.

[1] = po, p.o., read-out: Mouse PQW ED₅₀ (Mg/Kg) P.O
[2] = sc, s.c., read-out: Mouse PQW ED₅₀ (Mg/Kg) S.C

Row | Structure (SMILES) | ED50 (Male CF1 mice; [1]) [mg/kg] | ED50 (Male CF1 mice; [2]) [mg/kg] | other results
1 | CC(O)C1(c2cccc(F)c2)CCN(C)CC1 (stereo not drawn) [Example 5] | > 81 | 24 | –
2 | CC(O)C1(c2ccsc2)CCN(C)CC1 (stereo not drawn) [Example 27, 4-(3-Thienyl)-α,1-dimethylpiperidinemethanol] | 16 | 13 | –
3 | CC(=O)OC(C)(C)C1(c2cccc(Cl)c2)CCN(C)CC1 [Example 67, 4-(3'-Chlorophenyl)-α,α,1-trimethyl-4-piperidinemethanol Acetate] | 5.2 | 1.8 | –
4 | Cc1ccccc1C1(C(C)O)CCN(C)CC1 (stereo not drawn) [Example 12] | > 81 | > 81 | Mouse PQW remark (Male CF1 mice): Inactive; ED50 (Male CF mice): 1.03 mg/kg
5 | CCC(C)(O)C1(c2cccc(OC)c2)CCN(C)CC1 (stereo not drawn) [CC] | – | – | Mouse PQW ED50 (mg/kg) (Male CF1 mice; p.o.): 68.0; Mouse PQW ED50 (mg/kg) (Male CF1 mice; s.c.): 23.0
6 | CC(O)C1(c2cccs2)CCN(C)CC1 (stereo not drawn) [Example 26, 4-(2-Thienyl)-α,1-dimethylpiperidinemethanol] | 19 | 13 | –
7 | CN1CCC(c2ccc3ccccc3c2)(C(C)(C)O)CC1 [KK] | – | – | Mouse PQW ED50 (mg/kg) (Male CF1 mice; p.o.): 47.0; Mouse PQW ED50 (mg/kg) (Male CF1 mice; s.c.): 27.0
8 | CC(OCc1ccccc1)C1(c2cccc(Cl)c2)CCN(C)CC1 (stereo not drawn) [Example 69] | > 81 | 62 | –
9 | CCC(O)C1(c2cccc(Cl)c2)CCN(C)CC1 (stereo not drawn) [Example 35] | 30 | 16 | –
10 | CC(O)C1(c2ccc(Br)cc2)CCN(C)CC1 (stereo not drawn) [Example 11] | > 81 | > 81 | Mouse PQW remark (Male CF1 mice): Inactive
11 | Cc1ccc(C2(C(C)(C)O)CCN(C)CC2)s1 [LL] | – | – | Mouse PQW ED50 (mg/kg) (Male CF1 mice; p.o.): 36.0; Mouse PQW ED50 (mg/kg) (Male CF1 mice; s.c.): 9.0
12 | COc1cccc(C2(C3(O)CCCC3)CCN(C)CC2)c1 [FF] | – | – | Mouse PQW ED50 (mg/kg) (Male CF1 mice; p.o.): 47.0; Mouse PQW ED50 (mg/kg) (Male CF1 mice; s.c.): 16.0
13 | CN1CCC(c2csc3ccccc23)(C(C)(C)O)CC1 [Example 45] | 54 | 4.2 | –
14 | Cc1cc(C)cc(C2(C(C)(C)O)CCN(C)CC2)c1 [U] | – | – | Mouse PQW ED50 (mg/kg) (Male CF1 mice; p.o.): 47.0; Mouse PQW ED50 (mg/kg) (Male CF1 mice; s.c.): 4.5
15 | CN1CCC(c2cccc(Cl)c2)(C(C)(C)O)C1 (stereo not drawn) [Example 70, 3-(3'Chlorophenyl)-α,α,1-trimethyl-3-pyrrolidinemethanol] | 13 | 10 | –
16 | Cc1cccc(C2(C(C)O)CCN(C)CC2)c1 (stereo not drawn) [Example 13] | 47 | 4.7 | –
17 | CN1CCC(c2cccc(Cl)c2)(C(C)(C)O)CC1 [Example 1a, 4-(3'-Chlorophenyl)-α,α,1-trimethyl-4-piperidinemethanol] | 10 | 16.1 | –
18 | CC(O)C1(c2ccc(F)cc2)CCN(C)CC1 (stereo not drawn) [Example 6] | > 81 | 54 | –
19 | CN1CCC(c2cccs2)(C(C)(C)O)CC1 [Example 43] | 36 | 13 | –
20 | CCOc1cccc(C2(C(C)(C)O)CCN(C)CC2)c1 [HH] | – | – | Mouse PQW ED50 (mg/kg) (Male CF1 mice; p.o.): 32.0; Mouse PQW ED50 (mg/kg) (Male CF1 mice; s.c.): 9.0
21 | Cc1ccc(C2(C(C)O)CCN(C)CC2)cc1 (stereo not drawn) [Example 14] | > 81 | 54 | –
22 | CC(O)C1(c2ccc(Cl)cc2)CCN(C)CC1 (stereo not drawn) [Example 8] | > 81 | 30 | –
23 | CC(O)C1(c2cccc(Br)c2)CCN(C)CC1 (stereo not drawn) [Example 10, 4-(3'-Bromophenyl)-α,1-dimethylpiperidinemethanol] | 16 | 6.5 | –
24 | CC(O)C1(c2cccc(C(F)(F)F)c2)CCN(C)CC1 (stereo not drawn) [Example 15] | 30 | 19 | –
25 | CCN1CCC(c2cccc(Cl)c2)(C(C)O)CC1 (stereo not drawn) [Example 2, 4-(3'-Chlorophenyl)-1-ethyl-α-methyl-4-piperidinemethanol] | > 81 | 62 | –
26 | CCC(O)(CC)C1(c2cccc(OC)c2)CCN(C)CC1 [DD] | – | – | Mouse PQW ED50 (mg/kg) (Male CF1 mice; p.o.): 12.0

Reference: patent EP0337167B1, “4-Aryl-4-piperidine (or pyrrolidine or hexahydroazepine) carbinols and heterocyclic analogs thereof” (THE DU PONT MERCK PHARMACEUTICAL COMPANY, priority 1988, dated 1989)
